Test results from ChEMBL document CHEMBL5543095 (Eur J Med Chem, 2024).

Columns and labels:
Huh-7 = experiment: Antiproliferative activity against human Huh-7 cells assessed as inhibition of cell growth inhibition incubated for 48 hrs by CCK-8 assay; format: functional, cell-based; details: Huh-7, 48 h
[1] = Cytotoxicity against HUVEC cells assessed as inhibition of cell growth inhibition incubated for 48 hrs by CCK-8 assay; format: toxicity, cell-based; details: human
A549 = experiment: Antiproliferative activity against human A549 cells assessed as inhibition of cell growth inhibition incubated for 48 hrs by CCK-8 assay; format: functional, cell-based; details: A549, 48 h
U-87 MG [2] = experiment: Antiproliferative activity against human U87 cells assessed as inhibition of cell growth inhibition incubated for 48 hrs by CCK-8 assay; format: functional, cell-based, U-87MG ATCC
U-87 MG [3] = experiment: Induction of cell cycle arrest in human U87 cells assessed as accumulation of cells at […] at 25 nM measured after 48 hrs by PI staining based flow cytometry analysis (reference value: 8.55%); format: functional, U-87MG ATCC
U-87 MG [4] = experiment: Induction of cell cycle arrest in human U87 cells assessed as accumulation of cells at G1 phase at 25 nM measured after 48 hrs by PI staining based flow cytometry analysis (reference value: 72.6%); format: functional, U-87MG ATCC
[5] = Toxicity in C57BL/6 mouse implanted with mouse GL261-Luc cells assessed as reduction in body weight at 5 to 10 mg/kg, iv administered every other day on day 0,2,4,6,8,10 and measured after 12 days; format: organism-based; details: in vivo, 288 h, dose 5-10 mg/kg, time 12 day
[6] = Apparent permeability across basolateral to apical side in MDCK-MDR1 cells at 10 uM incubated for 90 mins by LC-MS/MS analysis; format: ADME, cell-based, Canis lupus familiaris; details: dog
P-gp = experiment: Substrate activity at P-gp in MDCK-MDR1 cells assessed as efflux ratio of apparent permeability across basolateral to apical side over apical to basolateral side at 10 uM incubated for 90 mins by LC-MS/MS analysis; format: ADME, cell-based, Canis lupus familiaris; details: dog
[7] = Toxicity in C57BL/6 mouse implanted with mouse GL261-Luc cells assessed as reduction in body weight at 5 mg/kg, iv administered every other day on day 0,2,4,6,8,10 and measured after 12 days; format: organism-based; details: in vivo, 288 h, time 12 day
[8] = Apparent permeability across apical to basolateral side in MDCK-MDR1 cells at 10 uM incubated for 90 mins by LC-MS/MS analysis; format: ADME, cell-based, Canis lupus familiaris; details: dog

Structure (SMILES)	IC50 (Huh-7) [µM]	IC50 at 48 h [1] [µM]	IC50 (A549) [µM]	IC50 (U-87 MG [2]) [µM]	Activity (U-87 MG [3]) [%]	Activity (U-87 MG [4]) [%]	Activity [5]	Papp B→A at 1.5 h, 10 µM [6] [×10⁻⁶ cm/s]	efflux ratio at 1.5 h, 10 µM (P-gp)	Activity [7]	Papp A→B at 1.5 h, 10 µM [8] [×10⁻⁶ cm/s]
CC(C)c1ccc(C2C(C#N)=C(N)Oc3c2cc(Cl)c2cccnc32)cc1 (centres undefined)	> 10	> 10	> 10	> 10							
CCc1ccc(C2C(C#N)=C(N)Oc3c2ccc2ccc(C)nc32)cc1 (centres undefined)	3.46	> 10	2.44	5.93							
N#CC1=C(N)Oc2c(cc(Cl)c3cccnc23)C1c1ccc(F)cc1 (centres undefined)	> 10	> 10	> 10	> 10							
COc1ccc(C2C(C#N)=C(N)Oc3c2ccc2cccnc32)c(OC)c1OC (centres undefined)	> 10	> 10	> 10	> 10							
Cc1ccc(C2C(C#N)=C(N)Oc3c2cc(Cl)c2cccnc32)cc1 (centres undefined)	> 10	> 10	> 10	> 10							
Cc1ccc(C2C(C#N)=C(N)Oc3c2ccc2cccnc32)cc1 (centres undefined)	> 10	> 10	> 10	> 10							
COc1cc(C2C(C#N)=C(N)Oc3c2ccc2ccc(C)nc32)cc(OC)c1Br (centres undefined)	2.6	> 10	1.59	2.87							
Cc1ccc2ccc3c(c2n1)OC(N)=C(C#N)C3c1ccc(Cl)c(Cl)c1 (centres undefined)	1.25	8.17	1.24	1.98							
CC(C)c1ccc(C2C(C#N)=C(N)Oc3c2ccc2cccnc32)cc1 (centres undefined)	> 10	> 10	> 10	> 10							
COc1ccc(C2C(C#N)=C(N)Oc3c2ccc2cccnc32)cc1OC (centres undefined)	2.95	> 10	> 10	> 10							
N#CC1=C(N)Oc2c(ccc3cccnc23)C1c1ccc(F)cc1 (centres undefined)	> 10	> 10	> 10	> 10							
CC[C@@]1(O)C(=O)OCc2c1cc1n(c2=O)Cc2cc3cc(O)ccc3nc2-1 [HYDROXYCAMPTOTHECIN]	1.35	0.92	0.12	2.92							
COc1cc(OC)c(C2C(C#N)=C(N)Oc3c2ccc2ccc(C)nc32)cc1OC (centres undefined)	4.64	7.87	8.13	4.68							
COc1cc2c(c(OC)c1OC)-c1ccc(OC)c(=O)cc1[C@@H](NC(C)=O)CC2 [COLCHICINE]					46.5	19.7					
Cc1ccc2ccc3c(c2n1)OC(N)=C(C#N)C3c1ccc(Br)cc1 (centres undefined)	> 10	> 10	8.12	> 10							
Cn1nnc2c(C(N)=O)ncn2c1=O [TEMOZOLOMIDE]							Non-Toxic	31.8	1.04	Non-Toxic	30.6
N#CC1=C(N)Oc2c(cc(Cl)c3cccnc23)C1c1ccccc1 (centres undefined)	0.3	> 10	9.66	4.38							

Structure (SMILES)	IC50 (Huh-7) [µM]	IC50 at 48 h [1] [µM]	IC50 (A549) [µM]	IC50 (U-87 MG [2]) [µM]	Activity (U-87 MG [3]) [%]	Activity (U-87 MG [4]) [%]	Activity [5]	Papp B→A at 1.5 h, 10 µM [6] [×10⁻⁶ cm/s]	efflux ratio at 1.5 h, 10 µM (P-gp)	Activity [7]	Papp A→B at 1.5 h, 10 µM [8] [×10⁻⁶ cm/s]
N#CC1=C(N)Oc2c(ccc3cccnc23)C1c1ccc(Cl)c(Cl)c1 (centres undefined)	2.35	8.23	4.95	6.18							
N#CC1=C(N)Oc2c(ccc3cccnc23)C1c1ccc(Br)cc1 (centres undefined)	> 10	> 10	> 10	> 10							
Cc1ccc2ccc3c(c2n1)OC(N)=C(C#N)C3c1cccc(Cl)c1Cl (centres undefined)	2.22	> 10	> 10	3.69							
Cc1ccc2ccc3c(c2n1)OC(N)=C(C#N)C3c1ccc(F)cc1 (centres undefined)	2	7.58	3.25	7.87							
N#CC1=C(N)Oc2c(cc(Cl)c3cccnc23)C1c1ccc(Cl)c(Cl)c1 (centres undefined)	2.14	> 10	6.42	4.13							
N#CC1=C(N)Oc2c(ccc3cccnc23)C1c1ccc(Cl)cc1 (centres undefined)	> 10	> 10	> 10	> 10							
COc1ccc(C2C(C#N)=C(N)Oc3c2cc(Cl)c2cccnc32)c(OC)c1OC (centres undefined)	> 10	> 10	> 10	> 10							
COc1ccc(C2C(C#N)=C(N)Oc3c2ccc2ccc(C)nc32)cc1OC (centres undefined)	> 10	> 10	> 10	4.85							
N#CC1=C(N)Oc2c(ccc3cccnc23)C1c1ccccc1 (centres undefined)	2.47	> 10	> 10	> 10							
Cc1ccc2ccc3c(c2n1)OC(N)=C(C#N)C3c1ccc(Cl)cc1 (centres undefined)	5.31	> 10	> 10	8.08							
Cc1ccc(C2C(C#N)=C(N)Oc3c2ccc2ccc(C)nc32)cc1 (centres undefined)	5.51	9.02	3.05	6.12							
N#CC1=C(N)Oc2c(cc(Cl)c3cccnc23)C1c1ccc(Cl)cc1 (centres undefined)	4.57	7.65	> 10	> 10							
Cc1ccc2ccc3c(c2n1)OC(N)=C(C#N)C3c1ccc(C(C)C)cc1 (centres undefined)	6.34	> 10	4.57	4.28							
COc1ccc(C2C(C#N)=C(N)Oc3c2cc(Cl)c2cccnc32)cc1OC (centres undefined)	> 10	> 10	> 10	> 10							
N#CC1=C(N)Oc2c(cc(Cl)c3cccnc23)C1c1ccc(Br)cc1 (centres undefined)	> 10	> 10	> 10	> 10							
C[C@H]1O[C@@H](O[C@H]2[C@@H](O)C[C@H](O[C@H]3[C@@H](O)C[C@H](O[C@H]4CC[C@@]5(C)[C@H](CC[C@@H]6[C@@H]5C[C@@H](O)[C@]5(C)[C@@H](C7=CC(=O)OC7)CC[C@]65O)C4)O[C@@H]3C)O[C@@H]2C)C[C@H](O)[C@@H]1O [DIGOXIN]								18	36.9		0.49
COc1ccc(C2C(C#N)=C(N)Oc3c2ccc2ccc(C)nc32)c(OC)c1OC (centres undefined)	4.89	> 10	6.16	5.27							
